Measurements as given in patent US20260265233A1, “BENZOTHIOPHENE DERIVATIVES AS RXFP1 AGONISTS” (BRISTOL-MYERS SQUIBB COMPANY, priority 2021, published 2026).

target: T1, human RXFP1 (Homo sapiens, UniProt Q9HBX9); experiment: hRXFP1 HEK293 cAMP assay (HTRF); assay type: cell-based; details: HEK293 cells stably expressing human RXFP1; 30 min at rt; intracellular cAMP by HTRF
T1 construct: expressed in transfected cells
T1 sequence (Q9HBX9 1-757): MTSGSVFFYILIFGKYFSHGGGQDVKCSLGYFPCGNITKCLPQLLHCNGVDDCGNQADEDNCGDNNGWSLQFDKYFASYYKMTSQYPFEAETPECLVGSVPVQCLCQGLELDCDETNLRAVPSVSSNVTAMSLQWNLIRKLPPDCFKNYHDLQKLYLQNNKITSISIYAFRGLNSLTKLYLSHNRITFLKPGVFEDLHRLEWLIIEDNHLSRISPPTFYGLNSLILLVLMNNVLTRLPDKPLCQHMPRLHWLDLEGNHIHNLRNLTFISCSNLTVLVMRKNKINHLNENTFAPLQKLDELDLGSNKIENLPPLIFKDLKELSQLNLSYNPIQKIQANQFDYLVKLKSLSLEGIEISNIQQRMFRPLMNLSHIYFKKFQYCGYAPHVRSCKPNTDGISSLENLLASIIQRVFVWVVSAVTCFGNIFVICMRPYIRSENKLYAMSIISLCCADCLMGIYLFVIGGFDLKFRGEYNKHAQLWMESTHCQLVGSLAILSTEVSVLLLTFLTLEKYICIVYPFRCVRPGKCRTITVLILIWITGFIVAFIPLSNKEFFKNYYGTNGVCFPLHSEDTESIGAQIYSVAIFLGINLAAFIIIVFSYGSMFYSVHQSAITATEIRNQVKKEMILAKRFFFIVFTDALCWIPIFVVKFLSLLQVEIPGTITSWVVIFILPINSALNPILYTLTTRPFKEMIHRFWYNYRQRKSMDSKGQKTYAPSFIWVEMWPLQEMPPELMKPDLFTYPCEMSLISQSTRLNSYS
How it was run: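 Agonism is measured as cAMP by HTRF, quantified from a standard curve via the 665/590 nm ratio and fitted with a four-parameter logistic equation. Compounds (0.010 nM to 50 μM final, 2% DMSO) were applied for 30 min at rt to human RXFP1-expressing HEK293 cells in assay buffer containing 0.5 mM IBMX.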

SMILES | EC50 [nM]
COc1ccc(N2CCC3(CN(CCS(C)(=O)=O)C3)C2)cc1C(=O)Nc1c(C(=O)Nc2ccc(F)c(C(F)(F)F)c2)sc2cc(C(F)(F)F)ccc12 [Example 194, N-(4-fluoro-3-(trifluoromethyl)phenyl)-3-(2-methoxy-5-(2-(2-(methylsulfonyl)ethyl)-2,6-diazaspiro[3.4]octan-6-yl)benzamido)-6-(trifluoromethyl) benzo[b] thiophene-2-carboxamide] | 746
COc1ccc(C2CCC(O)CC2)cc1C(=O)Nc1c(C(=O)Nc2ccc(F)c(C(F)(F)F)c2)sc2cc(C(F)(F)F)ccc12 (single isomer, unassigned) [Example 75, N-(4-fluoro-3-(trifluoromethyl)phenyl)-3-(5-(4-hydroxycyclo-hexyl)-2-methoxy-benzamido)-6-(trifluoromethyl) benzo[b] thiophene-2-carboxamide] | 420
COc1ccc(C2CCCN(CCS(C)(=O)=O)CC2)cc1C(=O)Nc1c(C(=O)Nc2ccc(F)c(C(F)(F)F)c2)sc2cc(C(F)(F)F)ccc12 (centres unmarked) [Example 74, N-(4-fluoro-3-(trifluoromethyl)phenyl)-3-(2-methoxy-5-(1-(2-(methylsulfonyl)ethyl)azepan-4-yl)benzamido)-6-(trifluoromethyl) benzo[b] thiophene-2-carboxamide] | 3370
COc1ncc(C(=O)OC(C)(C)C)cc1C(=O)Nc1c(C(=O)Nc2ccc(F)c(C(F)(F)F)c2)sc2cc(C(F)(F)F)ccc12 [Example 223, tert-butyl 5-((2-((4-fluoro-3-(trifluoromethyl)phenyl)carbamoyl)-6-(trifluoromethyl)benzo[b]thiophen-3-yl)carbamoyl)-6-methoxynicotinate] | 1250
COc1ccc(C2CC3CCC(C2)N3CCS(C)(=O)=O)cc1C(=O)Nc1c(C(=O)Nc2ccc(F)c(C(F)(F)F)c2)sc2cc(C(F)(F)F)ccc12 (centres unmarked) [Example 193, N-(4-fluoro-3-(trifluoromethyl)phenyl)-3-(2-methoxy-5-(8-(2-(methylsulfonyl)ethyl)-8-azabicyclo[3.2.1]octan-3-yl)benzamido)-6-(trifluoromethyl) benzo[b] thiophene-2-carboxamide] | 300
COc1ccc(-c2cc(C(=O)O)ccc2F)cc1C(=O)Nc1c(C(=O)Nc2ccc(F)c(C(F)(F)F)c2)sc2ccccc12 [Example 15, 6-fluoro-3′-((2-((4-fluoro-3-(trifluoromethyl)phenyl)carbamoyl)benzo[b]thiophen-3-yl)carbamoyl)-4′-methoxy-[1, 1′-biphenyl]-3-carboxylic acid] | 1560
COc1ccc(N2CCCC(NCC(N)=O)C2)cc1C(=O)Nc1c(C(=O)Nc2ccc(F)c(C(F)(F)F)c2)sc2cc(C(F)(F)F)ccc12 (stereo in doubt) [Example 112, (R)-3-(5-(3-((2-amino-2-oxoethyl)amino)piperidin-1-yl)-2-methoxy-benzamido)-N-(4-fluoro-3-(trifluoromethyl)phenyl)-6-(trifluoromethyl) benzo[b] thiophene-2-carboxamide] | 593
COc1cc(F)c(C(=O)N2CCC(O)CC2)cc1C(=O)Nc1c(C(=O)Nc2ccc(F)c(C(F)(F)F)c2)sc2cc(C(F)(F)F)ccc12 [Example 184, N-(4-fluoro-3-(trifluoromethyl)phenyl)-3-(4-fluoro-5-(4-hydroxypiperidine-1-carbonyl)-2-methoxy-benzamido)-6-(trifluoromethyl) benzo[b] thiophene-2-carboxamide] | 349
COc1ccc(N2CCCC(C(=O)NC3COC3)C2)cc1C(=O)Nc1c(C(=O)Nc2ccc(F)c(C(F)(F)F)c2)sc2cc(C(F)(F)F)ccc12 (single isomer, unassigned) [Example 188, 1-(3-((2-((4-fluoro-3-(trifluoromethyl)phenyl)carbamoyl)-6-(trifluoromethyl)benzo[b]thiophen-3-yl)carbamoyl)-4-methoxyphenyl)-N-(oxetan-3-yl)piperidine-3-carboxamide] | 772
COc1ccc(C2CC2CO)cc1C(=O)Nc1c(C(=O)Nc2ccc(F)c(C(F)(F)F)c2)sc2cc(C(F)(F)F)ccc12 (centres unmarked) [Example 49, N-(4-fluoro-3-(trifluoromethyl)phenyl)-3-(5-(2-(hydroxymethyl)cyclopropyl)-2-methoxybenzamido)-6-(trifluoromethyl) benzo[b]thiophene-2-carboxamide] | 617

More lines, now with the values ahead:

EC50 [nM] | SMILES
320 | COc1ccc(C2=NOC3CC(C(C)(C)O)CC23)cc1C(=O)Nc1c(C(=O)Nc2ccc(F)c(C(F)(F)F)c2)sc2cc(C(F)(F)F)ccc12 (single isomer, unassigned) [Example 55, N-(4-fluoro-3-(trifluoromethyl)phenyl)-3-(5-(5-(2-hydroxypropan-2-yl)-3a, 5,6,6a-tetrahydro-4H-cyclopenta[d]isoxazol-3-yl)-2-methoxybenzamido)-6-(trifluoromethyl)benzo[b]thiophene-2-carboxamide]
166 | COc1ccc(C2=NOC(C(C)(C)O)C2)cc1C(=O)Nc1c(C(=O)Nc2ccc(F)c(C(F)(F)F)c2)sc2cc(C(F)(F)F)ccc12 (single isomer, unassigned) [Example 257, N-[4-fluoro-3-(trifluoromethyl)phenyl]-3-{5-[5-(2-hydroxypropan-2-yl)-4,5-dihydro-1,2-oxazol-3-yl]-2-methoxy-benzamido}-6-(trifluoromethyl)-1-benzothiophene-2-carboxamide]
1680 | COc1ccc(N2CCCC(C(=O)NCCO)C2)cc1C(=O)Nc1c(C(=O)Nc2ccc(F)c(C(F)(F)F)c2)sc2cc(C(F)(F)F)ccc12 (single isomer, unassigned) [Example 231, 1-(3-((2-((4-fluoro-3-(trifluoromethyl)phenyl)carbamoyl)-6-(trifluoromethyl)benzo[b]thiophen-3-yl)carbamoyl)-4-methoxyphenyl)-N-(2-hydroxyethyl) piperidine-3-carboxamide]
1310 | COc1ccc(C2=NOC3CC(NC(=O)C(C)(C)O)CC23)cc1C(=O)Nc1c(C(=O)Nc2ccc(F)c(C(F)(F)F)c2)sc2cc(C(F)(F)F)ccc12 (centres unmarked) [Example 260, N-[4-fluoro-3-(trifluoromethyl)phenyl]-3-{5-[5-(2-hydroxy-2-methyl-propanamido)-3aH,4H,5H,6H, 6aH-cyclopenta[d] [1,2]oxazol-3-yl]-2-methoxy-benzamido}-6-(trifluoromethyl)-1-benzothiophene-2-carboxamide]
689 | COc1ccc(C(=O)NC(C)(C)CO)cc1C(=O)Nc1c(C(=O)Nc2ccc(F)c(C(F)(F)F)c2)sc2cc(C(F)(F)F)ccc12 [Example 190, N3-(2-((4-fluoro-3-(trifluoromethyl)phenyl)carbamoyl)-6-(trifluoromethyl)benzo[b]thiophen-3-yl)-N1-(1-hydroxy-2-methylpropan-2-yl)-4-methoxy-isophthalamide]
166 | COc1ccc(C2=NOC3CS(=O)(=O)CC23)cc1C(=O)Nc1c(C(=O)Nc2ccc(F)c(C(F)(F)F)c2)sc2cc(C(F)(F)F)ccc12 (centres unmarked) [Example 52, 3-(5-(5,5-dioxido-3a, 4,6,6a-tetrahydrothieno[3,4-d]isoxazol-3-yl)-2-methoxybenzamido)-N-(4-fluoro-3-(trifluoromethyl)phenyl)-6-(trifluoromethyl)benzo[b]thiophene-2-carboxamide]
51.2 | COc1ccc(C(=O)NCC2(S(C)(=O)=O)CC2)cc1C(=O)Nc1c(C(=O)Nc2ccc(F)c(C(F)(F)F)c2)sc2cc(C(F)(F)F)ccc12 [Example 131, N3-(2-((4-fluoro-3-(trifluoromethyl)phenyl)carbamoyl)-6-(trifluoromethyl)benzo[b]thiophen-3-yl)-4-methoxy-N1-((1-(methylsulfonyl)cyclopropyl)methyl) isophthalamide]
582 | COc1ccc(C2=NOC3(CCN(C(=O)C(C)(C)O)C3)C2)cc1C(=O)Nc1c(C(=O)Nc2ccc(F)c(C(F)(F)F)c2)sc2cc(C(F)(F)F)ccc12 (centres unmarked) [Example 279, N-[4-fluoro-3-(trifluoromethyl)phenyl]-3-{5-[7-(2-hydroxy-2-methylpropanoyl)-1-oxa-2,7-diazaspiro[4.4]non-2-en-3-yl]-2-methoxy-benzamido}-6-(trifluoromethyl)-1-benzothiophene-2-carboxamide]
1370 | CNC(=O)CN1CCCC(c2ccc(OC)c(C(=O)Nc3c(C(=O)Nc4ccc(F)c(C(F)(F)F)c4)sc4cc(C(F)(F)F)ccc34)c2)C1 (centres unmarked) [Example 99, N-(4-fluoro-3-(trifluoromethyl)phenyl)-3-(2-methoxy-5-(1-(2-(methylamino)-2-oxoethyl)piperidin-3-yl)benzamido)-6-(trifluoromethyl) benzo[b] thiophene-2-carboxamide]
3360 | COc1ccc(C2CCCN(C(C)C)CC2)cc1C(=O)Nc1c(C(=O)Nc2ccc(F)c(C(F)(F)F)c2)sc2cc(C(F)(F)F)ccc12 (centres unmarked) [Example 213, N-(4-fluoro-3-(trifluoromethyl)phenyl)-3-(5-(1-isopropylazepan-4-yl)-2-methoxy-benzamido)-6-(trifluoromethyl) benzo[b] thiophene-2-carboxamide]
